Results published in ChEMBL document CHEMBL1201862, “PubChem BioAssay data set” (2004).
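Tested at 5 concentrations; 48 h exposure; 96-well plates; endpoints linearly interpolated, else capped at highest concentration. The concentration for 50% growth inhibition is given as GI50.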 Activity calls are given as the source filed them. Cut-off read from the data, not from the text of the source: active = GI50 up to about 1.1 µM and inactive = higher. Where a SMILES comes first, the peptide text is derived from it. The star is where a group is joined. Boc = CC(C)(C)OC(=O)*

How the values were obtained:
Experiment in all cases: inhibition of tumour cell growth, NCI panel, 48 h
[1] = test system: A549
[2] = test system: HCC 2998
[3] = test system: HCT-116
[4] = test system: HT-29
[5] = test system: K562
[6] = test system: MDA-MB-435
[7] = test system: MDA-N
[8] = test system: NCI-H522
[9] = test system: OVCAR-5
[10] = test system: SF-295
[11] = test system: SK-MEL-28
[12] = test system: SR
[13] = test system: SW-620
[14] = test system: T47D
[15] = test system: TK-10
[16] = test system: UACC-62
[17] = test system: HL-60
[18] = test system: MCF7
[19] = test system: RPMI-8226

## C=CC[C@@H]1C(=O)[C@@]2(O[Si](C(C)C)(C(C)C)C(C)C)CC[C@@H]1C[C@H]2NC(=O)OCC(Cl)(Cl)Cl
[1]
  GI50: > 100 µM (inactive)
[2]
  GI50: 43.2 µM (inactive)
[3]
  GI50: 27.9 µM (inactive)
[4]
  GI50: > 100 µM (inactive)
[5]
  GI50: 61.8 µM (inactive)
[6]
  GI50: > 100 µM (inactive)
[7]
  GI50: 77.1 µM (inactive)
[8]
  GI50: < 0.01 µM (active)
[9]
  GI50: > 100 µM (inactive)
[10]
  GI50: 5.35 µM (inactive)
[11]
  GI50: > 100 µM (inactive)
[12]
  GI50: 35.4 µM (inactive)
[13]
  GI50: > 100 µM (inactive)
[14]
  GI50: > 100 µM (inactive)
[15]
  GI50: > 100 µM (inactive)
[16]
  GI50: > 100 µM (inactive)

## CC1(C)CC(=O)C(=CNC(N)=S)C(=O)C1
[1]
  GI50: > 100 µM (inactive)
[2]
  GI50: > 100 µM (inactive)
[3]
  GI50: > 100 µM (inactive)
[17]
  GI50: > 100 µM (inactive)
[4]
  GI50: > 100 µM (inactive)
[18]
  GI50: > 100 µM (inactive)
[6]
  GI50: > 100 µM (inactive)
[7]
  GI50: > 100 µM (inactive)
[8]
  GI50: > 100 µM (inactive)
[9]
  GI50: > 100 µM (inactive)
[10]
  GI50: > 100 µM (inactive)
[11]
  GI50: > 100 µM (inactive)
[13]
  GI50: > 100 µM (inactive)
[15]
  GI50: > 100 µM (inactive)
[16]
  GI50: > 100 µM (inactive)

## CC(=O)NC1(c2cc3ccccc3s2)CCCCCC1
[1]
  GI50: 38.9 µM (inactive)
[2]
  GI50: 61.2 µM (inactive)
[3]
  GI50: 35.3 µM (inactive)
[17]
  GI50: 23.4 µM (inactive)
[4]
  GI50: 34.3 µM (inactive)
[5]
  GI50: 23.8 µM (inactive)
[18]
  GI50: 37.2 µM (inactive)
[6]
  GI50: 35.5 µM (inactive)
[7]
  GI50: 48.4 µM (inactive)
[8]
  GI50: 20.7 µM (inactive)
[9]
  GI50: 36.7 µM (inactive)
[10]
  GI50: 33.7 µM (inactive)
[11]
  GI50: 54 µM (inactive)
[12]
  GI50: 28.4 µM (inactive)
[13]
  GI50: 47.1 µM (inactive)
[15]
  GI50: 47.5 µM (inactive)
[16]
  GI50: 31.3 µM (inactive)

## CC(C)(SCc1ccccc1)C(N)C(=O)O (stereo not drawn)
[1]
  GI50: > 100 µM (inactive)
[3]
  GI50: > 100 µM (inactive)
[17]
  GI50: > 100 µM (inactive)
[4]
  GI50: > 100 µM (inactive)
[5]
  GI50: > 100 µM (inactive)
[6]
  GI50: > 100 µM (inactive)
[7]
  GI50: > 100 µM (inactive)
[8]
  GI50: > 100 µM (inactive)
[9]
  GI50: > 100 µM (inactive)
[19]
  GI50: > 100 µM (inactive)
[10]
  GI50: > 100 µM (inactive)
[11]
  GI50: > 100 µM (inactive)
[12]
  GI50: > 100 µM (inactive)
[13]
  GI50: > 100 µM (inactive)
[14]
  GI50: > 100 µM (inactive)
[15]
  GI50: > 100 µM (inactive)
[16]
  GI50: > 100 µM (inactive)

## CSc1nncc(-c2cc3c(c(SC)n2)CCCC3)n1
[1]
  GI50: > 100 µM (inactive)
[2]
  GI50: > 100 µM (inactive)
[3]
  GI50: > 100 µM (inactive)
[17]
  GI50: > 100 µM (inactive)
[4]
  GI50: > 100 µM (inactive)
[5]
  GI50: > 100 µM (inactive)
[6]
  GI50: > 100 µM (inactive)
[7]
  GI50: > 100 µM (inactive)
[8]
  GI50: 53.7 µM (inactive)
[9]
  GI50: > 100 µM (inactive)
[19]
  GI50: > 100 µM (inactive)
[10]
  GI50: > 100 µM (inactive)
[11]
  GI50: > 100 µM (inactive)
[12]
  GI50: > 100 µM (inactive)
[13]
  GI50: > 100 µM (inactive)
[15]
  GI50: > 100 µM (inactive)
[16]
  GI50: > 100 µM (inactive)

## COc1ccc2nc3cccc([N+](=O)[O-])c3c(NCCN(C)C)c2c1
[1]
  GI50: 0.0515 µM (active)
[2]
  GI50: 0.0605 µM (active)
[3]
  GI50: 0.0251 µM (active)
[4]
  GI50: 0.0573 µM (active)
[5]
  GI50: 0.0292 µM (active)
[18]
  GI50: 0.0555 µM (active)
[6]
  GI50: 0.0826 µM (active)
[7]
  GI50: 0.124 µM (active)
[8]
  GI50: 0.0209 µM (active)
[9]
  GI50: 0.173 µM (active)
[19]
  GI50: 0.0318 µM (active)
[10]
  GI50: 0.233 µM (active)
[11]
  GI50: 0.161 µM (active)
[13]
  GI50: 0.14 µM (active)
[14]
  GI50: 0.146 µM (active)
[15]
  GI50: 0.263 µM (active)

## CC(=O)CCn1c(=S)sc2ccccc21
[1]
  GI50: > 100 µM (inactive)
[2]
  GI50: > 100 µM (inactive)
[3]
  GI50: > 100 µM (inactive)
[17]
  GI50: 17.5 µM (inactive)
[4]
  GI50: > 100 µM (inactive)
[18]
  GI50: > 100 µM (inactive)
[6]
  GI50: > 100 µM (inactive)
[7]
  GI50: > 100 µM (inactive)
[8]
  GI50: 19.4 µM (inactive)
[9]
  GI50: > 100 µM (inactive)
[10]
  GI50: > 100 µM (inactive)
[11]
  GI50: > 100 µM (inactive)
[13]
  GI50: > 100 µM (inactive)
[15]
  GI50: > 100 µM (inactive)
[16]
  GI50: > 100 µM (inactive)

## Cc1ccc(Oc2cc(C)ccc2P(=O)(O)O)cc1
[1]
  GI50: > 100 µM (inactive)
[2]
  GI50: > 100 µM (inactive)
[3]
  GI50: > 100 µM (inactive)
[17]
  GI50: > 100 µM (inactive)
[5]
  GI50: > 100 µM (inactive)
[18]
  GI50: > 100 µM (inactive)
[6]
  GI50: > 100 µM (inactive)
[7]
  GI50: > 100 µM (inactive)
[8]
  GI50: > 100 µM (inactive)
[19]
  GI50: > 100 µM (inactive)
[10]
  GI50: > 100 µM (inactive)
[11]
  GI50: > 100 µM (inactive)
[13]
  GI50: > 100 µM (inactive)
[15]
  GI50: > 100 µM (inactive)
[16]
  GI50: > 100 µM (inactive)

## COC(=O)C(Cc1c[nH]c2ccccc12)NC(=O)C(Cc1c[nH]c2ccccc12)NC(=O)C(Cc1c[nH]c2ccccc12)NC(=O)OC(C)(C)C (stereo not drawn) (Boc-Trp-Trp-Trp-OMe; configuration not given here)
[1]
  GI50: 39.2 µM (inactive)
[2]
  GI50: 18.6 µM (inactive)
[3]
  GI50: 16.2 µM (inactive)
[17]
  GI50: 16.1 µM (inactive)
[4]
  GI50: 19.2 µM (inactive)
[5]
  GI50: 27 µM (inactive)
[18]
  GI50: > 10 µM (inactive)
[7]
  GI50: 20 µM (inactive)
[9]
  GI50: 17.9 µM (inactive)
[19]
  GI50: 27.2 µM (inactive)
[11]
  GI50: 17.7 µM (inactive)
[13]
  GI50: 21.5 µM (inactive)
[14]
  GI50: 4.67 µM (inactive)
[15]
  GI50: 25.5 µM (inactive)
[16]
  GI50: 18.8 µM (inactive)
